Assay results as given in patent publication US11976073B2, “Bicyclic amines as CDK2 inhibitors” (Incyte Corporation, priority 2021, dated 2024).

How the values were obtained:
[1] = target: T1, CDK2/Cyclin E1 (Homo sapiens, UniProt P24941); experiment: CDK2/Cyclin E1 HTRF enzyme activity assay; assay type: biochemical; conditions: 1 mM ATP
T1 construct: utilize full-length human CDK2 co-expressed as N-terminal GST-tagged protein; GST (N); purchased Carna 04-165; host or cells: baculovirus expression system
Procedure: Example A. CDK2/Cyclin E1 HTRF Enzyme Activity Assay
CDK2/Cyclin E1 enzyme activity assays utilize full-length human CDK2 co-expressed as N-terminal GST-tagged protein with FLAG-Cyclin E1 in a baculovirus expression system (Carna Product Number 04-165). Assays were conducted in white 384-well polystyrene plates in a final reaction volume of 8 μL. CDK2/Cyclin E1 (0.25 nM) was incubated with the compounds of the Examples (40 nL serially diluted in DMSO) in the presence of ATP (50 μM or 1 mM) and 50 nM ULight™-labeled eIF4E-binding protein 1 (THR37/46) peptide (PerkinElmer) in assay buffer (containing 50 mM HEPES pH 7.5, 1 mM EGTA, 10 mM MgCl2, 2 mM DTT, 0.05 mg/mL BSA, and 0.01% Tween 20) for 60 minutes at room temperature. The reactions were stopped by the addition of EDTA and Europium-labeled anti-phospho-4E-BP1 antibody (PerkinElmer), for a final concentration of 15 mM and 1.5 nM, respectively. HTRF signals were read after 1 hour at room temperature on a PHERAstar FS plate reader (BMG Labtech). Data was analyzed with IDBS XLFit and GraphPad Prism 5.0 software using a three or four parameter dose response curve to determine IC50 for each compound.

[2] = target: CDK2 (Homo sapiens, UniProt P24941); experiment: Enzymatic binding data against CDK2 (comparison of isomeric peaks); assay type: biochemical; conditions: Peak 1 vs Peak 2 of Example 2, TFA salts
Procedure: To a solution of 6-(1-(1-ethoxyethyl)-1H-pyrazol-4-yl)-5-(1-(trifluoromethyl)cyclobutoxy)-[1,2,4]triazolo[…] (20 mg, 0.05 mmol) and 4-(methylsulfonyl)cyclohexan-1-one (26 mg, 0.15 mmol) in DCE (0.8 mL) was added TFA (0.2 mL) and sodium triacetoxyborohydride (31 mg, 0.15 mmol) and the resulting solution was stirred at 60° C. After 4 h, a second aliquot of 4-(methylsulfonyl)cyclohexan-1-one (13 mg, 0.08 mmol) and sodium triacetoxyborohydride (15 mg, 0.08 mmol) was added and stirring was continued overnight at 60° C. The volatiles were removed and the residue was dissolved in CH3CN and purified by prep-HPLC (Sunfire C18 column, eluting with a gradient of 21% to 39% acetonitrile/water containing 0.1% TFA over 12 minutes at a flow rate of 60 mL/min) to afford two isomeric peaks as their TFA salts. Peak 1 eluted at 8.8 min and Peak 2 eluted at 9.9 min. […] LC-MS calculated for C20H25F3N7O3S (M+H)^+: m/z=500.2; found 500.2.

SMILES | IC50 [1] [nM] | relative activity of the isomeric peaks against CDK2 [2]
CC(C)Oc1c(-c2cn[nH]c2)ncn2nc(NC3CCC(S(C)(=O)=O)CC3)nc12 (single isomer, unassigned) [Example 1, 8-Isopropoxy-N-(4-(methylsulfonyl)cyclohexyl)-7-(1H-pyrazol-4-yl)-[1,2,4]triazolo[1,5-c]pyrimidin-2-amine] | ≤ 10 | –
CS(=O)(=O)C1CCC(Nc2nc3cnc(-c4cn[nH]c4)c(OC4(C(F)(F)F)CCC4)n3n2)CC1 (single isomer, unassigned) [Example 2, N-(4-(Methylsulfonyl)cyclohexyl)-6-(1H-pyrazol-4-yl)-5-(1-(trifluoromethyl)cyclobutoxy)-[1,2,4]triazolo[1,5-a]pyrazin-2-amine] | ≤ 10 | more active isomer
